19 molecules from patent US10577383B2, “Macrocyclic inhibitors of myeloperoxidase” (BRISTOL-MYERS SQUIBB COMPANY, priority 2016, dated 2020) can be followed below.

The target in test [1] is T1, myeloperoxidase (Homo sapiens (Human), UniProt P05164). Briefly: MPO Peroxidation Assay (Amplex Red Assay). The format is biochemical. Particulars: MPO peroxidation activity, 100 mM KPi (pH 7.4), ten minute preincubation; potency ranges defined in nM. How it is done:
MPO Peroxidation Assay (Amplex Red Assay)
MPO peroxidation activity was measured in 100 mM KPi (pH 7.4) by utilizing the non-fluorescent reagent Amplex Red (Invitrogen Cat. #A12222) which can be oxidized to the highly fluorescent resorufin. Amplex Red is oxidized by the peroxidase action of MPO to resorufin. Reactions were carried out in 50 μL total volume by adding a 25 μL mixture of 200 pM myeloperoxidase and 40 nM H2O2 (Sigma #349887) to 100 nL inhibitor in 100% DMSO in a 384 well Perkin Elmer Optiplate. Enzyme and compound were preincubated for ten minutes at room temperature.
After the ten minute preincubation, 25 μL of an Amplex Red mixture containing 200 μM Amplex Red and 10 mM H2O2 was added to the plate. Kinetic determinations were carried out immediately on a Perkin Elmer Envision (15 minute kinetic read, Ex: 535 nm, Em: 590 nm).
(§1) IC50 values were calculated by determining the slope of the linear portion of the kinetic trace (180-540 secs), and using that calculated slope to determine % inhibition occurring at each concentration of inhibitor using the following equation:
(§2) [formula] where A=minimal Y value (activity level of inhibited sample), B=maximal Y value (activity level of uninhibited sample), C=Log IC50, D=Hill Slope, x=concentration of inhibitor. MPO Chlorination Assay (APF Assay) MPO chlorination activity was measured in 100 mM KPi (pH 7.4) by utilizing the non-fluorescent reagent Aminophenyl fluorescein (APF, Invitrogen Cat. #A36003). APF is cleaved by (—OCl) to yield the fluorescent compound fluorescein. Reactions were carried out in 50 μL total volume by adding a 25 μL mixture of 200 pM myeloperoxidase and 120 mM NaCl to 100 nL inhibitor in 100% DMSO in a 384 well, non-binding surface clear bottom plate (Corning #3655). Enzyme, inhibitor, and chloride were preincubated for ten minutes at room temperature.

Test [2] addresses T1, myeloperoxidase. Briefly: MPO Chlorination Assay (APF Assay). The format is biochemical. Particulars: MPO chlorination activity, 100 mM KPi (pH 7.4), 120 mM NaCl, ten minute preincubation; potency ranges defined in nM. How it is done: as §2
After the ten minute preincubation, 25 μL of an APF mixture containing […], 120 mM NaCl and 10 μM H2O2 was added to the plate using the internal dispensing system of a Hammatsu FDSS 6000. Kinetic determinations were carried out immediately on the FDSS 6000 (3 minute kinetic read, 1 read every second, ex: 485 nm, em: 535 nm). IC50 values for inhibitors were calculated by taking the slope of the linear portion of the kinetic measurement (20 seconds to 80-120 secs).
as §1
[formula] where A=minimal Y value (activity level of inhibited sample), B=maximal Y value (activity level of uninhibited sample), C=Log IC50, D=Hill Slope, x=concentration of inhibitor. EPX Bromination Assay

As usually defined, the IC50 is the point on the concentration scale where inhibition reaches its midpoint. A low value points to inhibition by little substance.

T1 sequence (P05164 49-745): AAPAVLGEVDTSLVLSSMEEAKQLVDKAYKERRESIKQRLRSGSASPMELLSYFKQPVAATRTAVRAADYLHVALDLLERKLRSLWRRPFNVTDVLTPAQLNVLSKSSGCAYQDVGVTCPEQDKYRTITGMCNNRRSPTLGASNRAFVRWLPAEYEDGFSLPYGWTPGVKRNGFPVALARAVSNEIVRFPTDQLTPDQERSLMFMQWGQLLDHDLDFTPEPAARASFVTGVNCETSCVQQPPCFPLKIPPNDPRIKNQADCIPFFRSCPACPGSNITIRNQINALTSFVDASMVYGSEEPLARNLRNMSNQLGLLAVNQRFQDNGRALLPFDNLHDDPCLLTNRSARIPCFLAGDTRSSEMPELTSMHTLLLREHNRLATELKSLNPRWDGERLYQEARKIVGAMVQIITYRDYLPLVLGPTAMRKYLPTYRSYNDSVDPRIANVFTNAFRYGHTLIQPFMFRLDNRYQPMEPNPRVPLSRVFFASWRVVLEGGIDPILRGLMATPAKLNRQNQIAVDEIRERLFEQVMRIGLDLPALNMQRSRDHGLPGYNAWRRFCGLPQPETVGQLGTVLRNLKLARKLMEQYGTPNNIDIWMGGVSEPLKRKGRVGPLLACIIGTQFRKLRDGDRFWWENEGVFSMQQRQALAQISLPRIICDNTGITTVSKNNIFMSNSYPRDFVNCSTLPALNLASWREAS

With `Nc1cc(C2CCNCCc3cccc(c3)Oc3cccc(c3)Cn3cc2cn3)c2nn[nH]c2n1` (single isomer, unassigned) [Example 4, 7-{18-oxa-3,4,10-triazatetracyclo[17.3.1.1^3,^6.1^13,^1^7]pentacosa-1(23),4,6(25),13,15,17(24),19,21-octaen-7-yl}-3H-[1,2,3]triazolo[4,5-b]pyridin-5-amine], the IC50 on myeloperoxidase [1] and against myeloperoxidase [2] was 101 to 999 nM in each case.
Take `Nc1cc(C2CCNCC3(CC3)COc3cccc(c3)Cn3cc2cn3)c2nn[nH]c2n1` (single isomer, unassigned) [Example 21, 7-{14′-Oxa-3′,4′,10′-triazaspiro[cyclopropane-1,12′-tricyclo[13.3.1.1^3,^6]icosane]-1′(19′),4′,6′(20′),15′,17′-pentaen-7′-yl}-3H-[1,2,3]triazolo[4,5-b]pyridin-5-amine]: the IC50 is 101 to 999 nM at myeloperoxidase [1] and 1 to 100 nM against myeloperoxidase [2].
Taken in the same sequence, the figures for `Nc1cc(C2CCNCc3cccc(c3)Oc3cccc(c3)Cn3cc2cn3)c2nn[nH]c2n1` (centres unmarked) [Example 1, 7-{17-oxa-3,4,10-triazatetracyclo[16.3.1.1^3,^6.1^12,^1^6]tetracosa-1(22),4,6(24),12,14,16(23),18,20-octaen-7-yl}-3H-[1,2,3]triazolo[4,5-b]pyridin-5-amine] were 101 to 999 nM and 1 to 100 nM.
As for `Nc1cc(C2CCNCCc3cccc(c3)Oc3cccc(c3)Cn3cc2cn3)c2nn[nH]c2n1` (centres unmarked) [Example 3, 7-{18-oxa-3,4,10-triazatetracyclo[17.3.1.1^3,^6.1^13,^1^7]pentacosa-1(23),4,6(25),13,15,17(24),19,21-octaen-7-yl}-3H-[1,2,3]triazolo[4,5-b]pyridin-5-amine], the IC50 against myeloperoxidase [1] and against myeloperoxidase [2] was 1 to 100 nM each time.
`CN1CCC(c2cc(N)nc3[nH]nnc23)c2cnn(c2)Cc2cccc(c2)Oc2cccc(c2)C1` (centres unmarked) [Example 6, 7-{10-methyl-17-oxa-3,4,10-triazatetracyclo[16.3.1.1^3,^6.1^12,^1^6]tetracosa-1(22),4,6(24),12,14,16(23),18,20-octaen-7-yl}-3H-[1,2,3]triazolo[4,5-b]pyridin-5-amine]: the IC50 against myeloperoxidase [1] was in the range of 1000 to 10000 nM; against myeloperoxidase [2], 101 to 999 nM.
Turning to `C[C@H]1Cc2cccc(c2)Oc2cccc(c2)Cn2cc(cn2)C(c2cc(N)nc3[nH]nnc23)CCN1` (stereo partly drawn) [Example 7, 7-[(11S)-11-Methyl-18-oxa-3,4,10-triazatetracyclo[17.3.1.1^3,^6.1^13,^1^7]pentacosa-1(23),4,6(25),13,15,17(24),19,21-octaen-7-yl]-3H-[1,2,3]triazolo[4,5-b]pyridin-5-amine], the IC50 at myeloperoxidase [1] and against myeloperoxidase [2] was 1 to 100 nM throughout.
With `C[C@@H]1Cc2cccc(c2)Oc2cccc(c2)Cn2cc(cn2)C(c2cc(N)nc3[nH]nnc23)CCN1` (stereo partly drawn) [Example 8, 7-[(11R)-11-Methyl-18-oxa-3,4,10-triazatetracyclo[17.3.1.1^3,^6.1^13,^1^7]pentacosa-1(23),4,6(25),13,15,17(24),19,21-octaen-7-yl]-3H-[1,2,3]triazolo[4,5-b]pyridin-5-amine], the IC50 against myeloperoxidase [1] was 101 to 999 nM; at myeloperoxidase [2], 1 to 100 nM.
Turning to `Nc1cc(C2CCNCc3cccc(c3)OCc3cccc(c3)Cn3cc2cn3)c2nn[nH]c2n1` (centres unmarked) [Example 9, 7-{17-Oxa-3,4,10-triazatetracyclo[17.3.1.1^3,^6.1^12,^1^6]pentacosa-1(23),4,6(25),12,14,16(24),19,21-octaen-7-yl}-3H-[1,2,3]triazolo[4,5-b]pyridin-5-amine], the IC50 on myeloperoxidase [1] and against myeloperoxidase [2] was 1 to 100 nM throughout.
With `C[C@H]1Oc2cccc(c2)Cn2cc(cn2)C(c2cc(N)nc3[nH]nnc23)CCNCc2cccc1c2` (stereo partly drawn) [Example 10, 7-[(17R)-17-Methyl-18-oxa-3,4,10-triazatetracyclo[17.3.1.1^3,^6.1^12,^16]pentacosa-1(23),4,6(25),12,14,16(24),19,21-octaen-7-yl]-3H-[1,2,3]triazolo[4,5-b]pyridin-5-amine], the IC50 against myeloperoxidase [1] lay within 101 to 999 nM; against myeloperoxidase [2], 1 to 100 nM.
Taken in the same sequence, the figures for `Nc1cc(C2CCN[C@H](CO)Cc3cccc(c3)Oc3cccc(c3)Cn3cc2cn3)c2nn[nH]c2n1` (stereo partly drawn) [Example 11, [(11S)-7-{5-Amino-3H-[1,2,3]triazolo[4,5-b]pyridin-7-yl}-18-oxa-3,4,10-triazatetracyclo[17.3.1.1^3,^6.1^13,^1^7]pentacosa-1(23),4,6(25),13,15,17(24),19,21-octaen-11-yl]methanol] were 101 to 999 nM and 1 to 100 nM.
Take `Nc1cc(C2CCNCc3cc(F)cc(c3)OCc3cccc(c3)Cn3cc2cn3)c2nn[nH]c2n1` (centres unmarked) [Example 12, 7-{14-Fluoro-17-oxa-3,4,10-triazatetracyclo[17.3.1.1^3,^6.1^12,^1^6]pentacosa-1(23),4,6(25),12(24),13,15,19,21-octaen-7-yl}-3H-[1,2,3]triazolo[4,5-b]pyridin-5-amine]: the IC50 at myeloperoxidase [1] and against myeloperoxidase [2] was 1 to 100 nM throughout.
`COc1ccc2cc1OCc1cccc(c1)Cn1cc(cn1)C(c1cc(N)nc3[nH]nnc13)CCNC2` (centres unmarked) [Example 13, 7-{15-Methoxy-17-oxa-3,4,10-triazatetracyclo[17.3.1.1^3,^6.1^12,^1^6]pentacosa-1(23),4,6(25),12(24),13,15,19,21-octaen-7-yl}-3H-[1,2,3]triazolo[4,5-b]pyridin-5-amine]: the results for the IC50 against myeloperoxidase [1] and against myeloperoxidase [2] were 1000 to 10000 nM and 101 to 999 nM, respectively.
For `Nc1cc(C2CCNCc3ccc(F)c(c3)OCc3cccc(c3)Cn3cc2cn3)c2nn[nH]c2n1` (centres unmarked) [Example 14, 7-{15-Fluoro-17-oxa-3,4,10-triazatetracyclo[17.3.1.1^3,^6.1^12,^1^6]pentacosa-1(23),4,6(25),12(24),13,15,19,21-octaen-7-yl}-3H-[1,2,3]triazolo[4,5-b]pyridin-5-amine] the same measures were 1000 to 10000 nM and 1 to 100 nM.
Taken in the same sequence, the figures for `Nc1cc(C2CCNCc3cc(Cl)cc(c3)OCc3cccc(c3)Cn3cc2cn3)c2nn[nH]c2n1` (centres unmarked) [Example 15, 7-{14-Chloro-17-oxa-3,4,10-triazatetracyclo[17.3.1.1^3,^6.1^12,^1^6]pentacosa-1(23),4,6(25),12(24),13,15,19,21-octaen-7-yl}-3H-[1,2,3]triazolo[4,5-b]pyridin-5-amine] were 101 to 999 nM and 1 to 100 nM.
Turning to `Nc1cc(C2CCNCCc3cccc(c3)OCc3cccc(c3)Cn3cc2cn3)c2nn[nH]c2n1` (centres unmarked) [Example 16, 7-{18-Oxa-3,4,10-triazatetracyclo[18.3.1.1^3,^6.1^13,^1^7]hexacosa-1(24),4,6(26),13(25),14,16,20,22-octaen-7-yl}-3H-[1,2,3]triazolo[4,5-b]pyridin-5-amine], the IC50 against myeloperoxidase [1] was in the range of 101 to 999 nM; on myeloperoxidase [2], 1 to 100 nM.
For `Nc1cc(C2CCNCCCOc3cccc(c3)Cn3cc2cn3)c2nn[nH]c2n1` (centres unmarked) [Example 17, 7-{14-Oxa-3,4,10-triazatricyclo[13.3.1.1^3,^6]icosa-1(19),4,6(20),15,17-pentaen-7-yl}-3H-[1,2,3]triazolo[4,5-b]pyridin-5-amine] the same measures were 1000 to 10000 nM and 101 to 999 nM.
Taken in the same sequence, the figures for `Nc1cc(C2CCNCC3(CC3)COc3cccc(c3)Cn3cc2cn3)c2nn[nH]c2n1` (centres unmarked) [Example 19, 7-{14′-Oxa-3′,4′,10′-triazaspiro[cyclopropane-1,12′-tricyclo[13.3.1.1^3,^6]icosane]-1′(19′),4′,6′(20′),15′,17′-pentaen-7′-yl}-3H-[1,2,3]triazolo[4,5-b]pyridin-5-amine] were 101 to 999 nM and 1 to 100 nM.
On to `Nc1cc(C2CCNCC3(CCCC3)COc3cccc(c3)Cn3cc2cn3)c2nn[nH]c2n1` (centres unmarked) [Example 22, 7-{14′-Oxa-3′,4′,10′-triazaspiro[cyclopentane-1,12′-tricyclo[13.3.1.1^3,^6]icosane]-1′(19′),4′,6′(20′),15′,17′-pentaen-7′-yl}-3H-[1,2,3]triazolo[4,5-b]pyridin-5-amine], for which the figures for the IC50 on myeloperoxidase [1] and on myeloperoxidase [2] were 101 to 999 nM and 1 to 100 nM, respectively.
For `Nc1cc(C2CCNCc3cc(cc(OC(F)(F)F)c3)COc3cccc(c3)Cn3cc2cn3)c2nn[nH]c2n1` (centres unmarked) [Example 23, 7-[14-(Trifluoromethoxy)-18-oxa-3,4,10-triazatetracyclo[17.3.1.1^3,^6.1^12,^1^6]pentacosa-1(23),4,6(25),12,14,16(24),19,21-octaen-7-yl]-3H-[1,2,3]triazolo[4,5-b]pyridin-5-amine] the same measures were 1000 to 10000 nM and 101 to 999 nM.
